Assay results as given in US12433881B2, “Nicotine tablet” (Fertin Pharma A/S, priority 2017, dated 2025).

Conditions: nicotine concentration increased from 100 microgram/mL to 14,000 microgram/mL

CN1CCCC1c1cccnc1 (stereo not shown) [nicotine]
change of permeability of nicotine across the buccal mucosa: decrease of about a factor of two
